Source: PubChem BioAssay AID192 (DTP/NCI, 2004)
Values joined by “and” are separate entries in the source; they are usually repeats but may differ in a detail not shown here. Identical values can stand only once. Inconclusive results and toxic doses are left out.

Tested on: BDF1 mice, B16 melanoma ip, median survival T/C
Test: NCI In Vivo Anticancer Drug Screen. Data for tumor model B16 Melanoma (intraperitoneal) in B6D2F1 (BDF1) mice
Settings: endpoint: median survival time, higher = longer survival
Outline: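 In this screen, activity was judged from survival or tumor size in treated versus vehicle-treated tumor-bearing mice, reported as T/C.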

[1] = dose: 12.5 mg/kg/injection, schedule: Q01DX009 (ip), vehicle: saline
[2] = dose: 25.0 mg/kg/injection, schedule: Q01DX009 (ip), vehicle: saline
[3] = dose: 50.0 mg/kg/injection, schedule: Q01DX009 (ip), vehicle: saline
[4] = dose: 100.0 mg/kg/injection, schedule: Q01DX009 (ip), vehicle: saline
[5] = dose: 25.0 mg/kg/injection, schedule: Q01DX009 (ip), vehicle: saline with Tween-80
[6] = dose: 50.0 mg/kg/injection, schedule: Q01DX009 (ip), vehicle: saline with Tween-80
[7] = dose: 5.0 mg/kg/injection, schedule: Q01DX009 (ip), vehicle: saline
[8] = dose: 10.0 mg/kg/injection, schedule: Q01DX009 (ip), vehicle: saline
[9] = dose: 100.0 mg/kg/injection, schedule: Q01DX009 (ip), vehicle: Klucel (hydroxypropylcellulose) (HPC)
[10] = dose: 200.0 mg/kg/injection, schedule: Q01DX009 (ip), vehicle: Klucel (hydroxypropylcellulose) (HPC)
[11] = dose: 100.0 mg/kg/injection, schedule: Q01DX009 (ip), vehicle: saline with Tween-80
[12] = dose: 200.0 mg/kg/injection, schedule: Q01DX009 (ip), vehicle: saline with Tween-80
[13] = dose: 400.0 mg/kg/injection, schedule: Q01DX009 (ip), vehicle: saline with Tween-80
[14] = dose: 6.25 mg/kg/injection, schedule: Q01DX009 (ip), vehicle: saline
[15] = dose: 100.0 mg/kg/injection, schedule: Q04DX003 (ip), vehicle: saline with Tween-80
[16] = dose: 200.0 mg/kg/injection, schedule: Q04DX003 (ip), vehicle: saline with Tween-80
[17] = dose: 200.0 mg/kg/injection, schedule: Q01DX009 (ip), vehicle: saline

Structure (SMILES): CN(C)CCCN1c2ccccc2S(=O)c2ccc(Cl)cc21 (stereo not given)
- T/C [1]: 97 % of control
- T/C [2]: 100 % of control
- T/C [3]: 108 % of control
- T/C [4]: 94 % of control

Structure (SMILES): C=CCN1/C(=C/C=C\c2sc3ccccc3[n+]2CC=C)Sc2ccccc21
- T/C (dose: 0.06 mg/kg/injection, schedule: Q01DX009 (ip), vehicle: saline with Tween-80): 100 % of control
- T/C (dose: 0.13 mg/kg/injection, schedule: Q01DX009 (ip), vehicle: saline with Tween-80): 97 % of control
- T/C (dose: 0.25 mg/kg/injection, schedule: Q01DX009 (ip), vehicle: saline with Tween-80): 97 % of control
- T/C (dose: 0.5 mg/kg/injection, schedule: Q01DX009 (ip), vehicle: saline with Tween-80): 95 % of control

Structure (SMILES): CCC1(C)c2cc(C)c(C(C)=O)cc2C(C)(C)C1C (stereo not given)
- T/C [5]: 107 % of control
- T/C [6]: 99 % of control

Structure (SMILES): O=CN(O)CC(=O)O.[Zn]
- T/C [7]: 99 % of control
- T/C [8]: 98 % of control
- T/C (dose: 20.0 mg/kg/injection, schedule: Q01DX009 (ip), vehicle: saline): 88 % of control

Structure (SMILES): c1ccc(-c2cnoc2-c2ccccc2)cc1
- T/C (dose: 50.0 mg/kg/injection, schedule: Q01DX009 (ip), vehicle: Klucel (hydroxypropylcellulose) (HPC)): 100 % of control
- T/C [9]: 107 % of control
- T/C [10]: 100 % of control

Structure (SMILES): c1cc2cc3c(cc2c2c1CC1c4cc5c(cc4CCN1C2)OCO5)OCO3 (stereo not given)
- T/C [9]: 89 % of control
- T/C [10]: 86 % of control

Structure (SMILES): C=C1C(C)C2C(Cc3ccccc3)NC(=O)C23C(OC(C)=O)C=CC(C)(O)C(=O)C(C)C/C=C/C3C1O (stereo not given)
- T/C (dose: 0.63 mg/kg/injection, schedule: Q01DX009 (ip), vehicle: Klucel (hydroxypropylcellulose) (HPC)): 103 % of control
- T/C (dose: 1.25 mg/kg/injection, schedule: Q01DX009 (ip), vehicle: Klucel (hydroxypropylcellulose) (HPC)): 94 % of control and 114 % of control
- T/C (dose: 2.5 mg/kg/injection, schedule: Q01DX009 (ip), vehicle: Klucel (hydroxypropylcellulose) (HPC)): 100 % of control and 114 % of control
- T/C (dose: 5.0 mg/kg/injection, schedule: Q01DX009 (ip), vehicle: Klucel (hydroxypropylcellulose) (HPC)): 108 % of control and 112 % of control

Structure (SMILES): NC(=S)N/N=C/c1ccc(OC(=O)COc2ccccc2)cn1
- T/C (dose: 12.5 mg/kg/injection, schedule: Q01DX009 (ip), vehicle: saline with Tween-80): 101 % of control and 110 % of control
- T/C [5]: 94 % of control and 104 % of control and 119 % of control
- T/C [6]: 103 % of control and 106 % of control and 117 % of control
- T/C [11]: 105 % of control
- T/C [12]: 105 % of control
- T/C [13]: 108 % of control

Structure (SMILES): Nc1ccc2nc3ccc(N)cc3[n+](-c3ccccc3)c2c1
- T/C (dose: 3.75 mg/kg/injection, schedule: Q01DX009 (ip), vehicle: saline with Tween-80): 97 % of control
- T/C (dose: 7.5 mg/kg/injection, schedule: Q01DX009 (ip), vehicle: saline with Tween-80): 102 % of control
- T/C (dose: 10.0 mg/kg/injection, schedule: Q04DX003 (ip), vehicle: saline with Tween-80): 100 % of control
- T/C (dose: 15.0 mg/kg/injection, schedule: Q01DX009 (ip), vehicle: saline with Tween-80): 102 % of control
- T/C (dose: 20.0 mg/kg/injection, schedule: Q04DX003 (ip), vehicle: saline with Tween-80): 107 % of control
- T/C (dose: 30.0 mg/kg/injection, schedule: Q01DX009 (ip), vehicle: saline with Tween-80): 118 % of control
- T/C (dose: 40.0 mg/kg/injection, schedule: Q04DX003 (ip), vehicle: saline with Tween-80): 100 % of control

Structure (SMILES): Nc1ccc2ncccc2c1
- T/C [1]: 111 % of control
- T/C [2]: 105 % of control
- T/C [3]: 109 % of control

Structure (SMILES): C=C1C(=O)OC2CC3(C)CC(O)C(OC(C)=O)C(=C)C3CC12 (stereo not given)
- T/C (dose: 2.5 mg/kg/injection, schedule: Q01DX009 (ip), vehicle: saline): 109 % of control
- T/C [7]: 104 % of control
- T/C [8]: 106 % of control

Structure (SMILES): O=C1OC2CC1(O)CC(O)C2O (stereo not given)
- T/C [14]: 111 % of control
- T/C [1]: 92 % of control
- T/C [2]: 101 % of control
- T/C (dose: 50.0 mg/kg/injection, schedule: Q04DX003 (ip), vehicle: saline with Tween-80): 103 % of control
- T/C [15]: 97 % of control
- T/C [16]: 94 % of control

Structure (SMILES): O=NN(CCF)C(=O)NC1C(O)CCCC1O (stereo not given)
- T/C (dose: 1.88 mg/kg/injection, schedule: Q01DX001 (ip), vehicle: saline): 121 % of control
- T/C (dose: 7.5 mg/kg/injection, schedule: Q01DX001 (ip), vehicle: saline): 199 % of control
- T/C (dose: 15.0 mg/kg/injection, schedule: Q01DX001 (ip), vehicle: saline): 212 % of control
- T/C (dose: 30.0 mg/kg/injection, schedule: Q01DX001 (ip), vehicle: saline): 263 % of control
- T/C (dose: 60.0 mg/kg/injection, schedule: Q01DX001 (ip), vehicle: saline): 226 % of control

Structure (SMILES): CCO/C=C1\SC(=S)N(c2ccc(OCC)cc2)C1=O
- T/C [10]: 92 % of control

Structure (SMILES): Cc1cc(OCc2nc(N)nc(N)c2-c2ccc(Cl)c(Cl)c2)ccc1NS(=O)(=O)c1cccc(S(=O)(=O)F)c1
- T/C (dose: 117.0 mg/kg/injection, schedule: Q04DX003 (ip), vehicle: saline): 122 % of control
- T/C (dose: 400.0 mg/kg/injection, schedule: Q04DX003 (ip), vehicle: saline): 117 % of control

Structure (SMILES): Cc1[nH]c(N)nc(=S)c1CCC(=O)Nc1ccc(C(=O)NC(CCC(=O)O)C(=O)O)cc1 (stereo not given)
- T/C [6]: 101 % of control
- T/C [11]: 101 % of control
- T/C [12]: 100 % of control
- T/C [13]: 110 % of control

Structure (SMILES): COc1cc2c(cc1O)C(=O)CCCC2
- T/C [11]: 107 % of control
- T/C [12]: 101 % of control
- T/C [13]: 89 % of control and 101 % of control

Structure (SMILES): C=CCc1ccccc1C
- T/C [9]: 104 % of control
- T/C [10]: 105 % of control
- T/C (dose: 400.0 mg/kg/injection, schedule: Q01DX009 (ip), vehicle: Klucel (hydroxypropylcellulose) (HPC)): 90 % of control

Structure (SMILES): CC[S][Hg][Cl]
- T/C (dose: 0.75 mg/kg/injection, schedule: Q04DX003 (ip), vehicle: saline with Tween-80): 93 % of control
- T/C (dose: 1.5 mg/kg/injection, schedule: Q04DX003 (ip), vehicle: saline with Tween-80): 100 % of control
- T/C (dose: 3.0 mg/kg/injection, schedule: Q04DX003 (ip), vehicle: saline with Tween-80): 97 % of control
- T/C (dose: 6.25 mg/kg/injection, schedule: Q04DX003 (ip), vehicle: saline with Tween-80): 86 % of control

Structure (SMILES): CCN1CC(CCN2CCOCC2)C(c2ccccc2)(c2ccccc2)C1=O (stereo not given)
- T/C [14]: 91 % of control
- T/C [1]: 104 % of control
- T/C [2]: 100 % of control
- T/C [3]: 102 % of control
- T/C [4]: 100 % of control

Structure (SMILES): Cc1cnc([Se])[nH]c1=O
- T/C (dose: 6.25 mg/kg/injection, schedule: Q01DX009 (ip), vehicle: water): 100 % of control
- T/C (dose: 12.5 mg/kg/injection, schedule: Q01DX009 (ip), vehicle: water): 96 % of control
- T/C (dose: 25.0 mg/kg/injection, schedule: Q01DX009 (ip), vehicle: water): 96 % of control
- T/C (dose: 50.0 mg/kg/injection, schedule: Q01DX009 (ip), vehicle: water): 101 % of control

Structure (SMILES): CC#CCOCC1CN(c2ccccc2)C(=O)O1 (stereo not given)
- T/C [2]: 102 % of control
- T/C [3]: 97 % of control
- T/C [4]: 102 % of control
- T/C [15]: 97 % of control
- T/C [17]: 100 % of control
- T/C [16]: 94 % of control
- T/C (dose: 400.0 mg/kg/injection, schedule: Q01DX009 (ip), vehicle: saline): 97 % of control
- T/C (dose: 400.0 mg/kg/injection, schedule: Q04DX003 (ip), vehicle: saline with Tween-80): 94 % of control

Structure (SMILES): [Cl][Pt+2]([Cl])([Cl])[Cl].[NH-]C1CCCCC1.[NH-]C1CCCCC1
- T/C (dose: 6.25 mg/kg/injection, schedule: Q01DX009 (ip), vehicle: other): 124 % of control
- T/C (dose: 12.5 mg/kg/injection, schedule: Q01DX009 (ip), vehicle: other): 111 % of control
- T/C (dose: 25.0 mg/kg/injection, schedule: Q01DX009 (ip), vehicle: other): 112 % of control
- T/C (dose: 50.0 mg/kg/injection, schedule: Q01DX009 (ip), vehicle: other): 103 % of control

Structure (SMILES): CNCCOc1ccccc1
- T/C [5]: 110 % of control
- T/C [6]: 101 % of control
- T/C [11]: 101 % of control

Structure (SMILES): C/C=C/C=C\C1OC(O)([C@H](CC)C(=O)NC/C=C/C=C(\C)[C@H](OC)C(C)C2OC(\C=C/C=C/C=C(\C)C(=O)c3c(O)ccn(C)c3=O)[C@H](O)[C@@H]2O)C(O)C(O)C1(C)C (stereo not given in full)
- T/C [2]: 102 % of control
- T/C [3]: 89 % of control
- T/C [4]: 91 % of control
- T/C [17]: 97 % of control

Structure (SMILES): CCCCN(CCCC)CC(O)c1ccnc2cc3c(cc12)OCO3 (stereo not given)
- T/C (dose: 25.0 mg/kg/injection, schedule: Q04DX003 (ip), vehicle: Klucel (hydroxypropylcellulose) (HPC)): 94 % of control
- T/C (dose: 50.0 mg/kg/injection, schedule: Q04DX003 (ip), vehicle: Klucel (hydroxypropylcellulose) (HPC)): 89 % of control
- T/C (dose: 100.0 mg/kg/injection, schedule: Q04DX003 (ip), vehicle: Klucel (hydroxypropylcellulose) (HPC)): 89 % of control
